Results published in US20250230171A1 (MOMA Therapeutics, Inc., priority 2023, published 2025).

How the values were obtained:
DLD1 WT cells = assay: 7-day cell viability assay (CellTiter-Glo), DLD1 parental (WT); assay type: cell-based, human; details: Homo sapiens, DLD-1, 168 h, 7-day viability, n=2
DLD1 BRCA2 (−/−) cells = assay: 7-day cell viability assay (CellTiter-Glo), DLD1 BRCA2 (−/−); assay type: cell-based, human; details: Homo sapiens, DLD-1, 168 h, 7-day viability, n=2, read-out: Viability IC50 (uM) DLD1 BRCA2 null
Procedure, shortened: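 7-day growth assay in DLD1 cells with or without BRCA2; seeding densities chosen to keep log-linear growth. Compound: 10 uM top, 3-fold, 9 points. Endpoint: CTG ATP luminescence at RT.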

[1] = biological target: biotinylated Avi-POLθ[2-894] (Homo sapiens (Human), UniProt O75417); assay: POLθ ATPase assay (ADP-Glo); details: n=2; read-out: Biochemical ATPase ADPGlo IC50
biotinylated Avi-POLθ[2-894], sequence (O75417 2-894): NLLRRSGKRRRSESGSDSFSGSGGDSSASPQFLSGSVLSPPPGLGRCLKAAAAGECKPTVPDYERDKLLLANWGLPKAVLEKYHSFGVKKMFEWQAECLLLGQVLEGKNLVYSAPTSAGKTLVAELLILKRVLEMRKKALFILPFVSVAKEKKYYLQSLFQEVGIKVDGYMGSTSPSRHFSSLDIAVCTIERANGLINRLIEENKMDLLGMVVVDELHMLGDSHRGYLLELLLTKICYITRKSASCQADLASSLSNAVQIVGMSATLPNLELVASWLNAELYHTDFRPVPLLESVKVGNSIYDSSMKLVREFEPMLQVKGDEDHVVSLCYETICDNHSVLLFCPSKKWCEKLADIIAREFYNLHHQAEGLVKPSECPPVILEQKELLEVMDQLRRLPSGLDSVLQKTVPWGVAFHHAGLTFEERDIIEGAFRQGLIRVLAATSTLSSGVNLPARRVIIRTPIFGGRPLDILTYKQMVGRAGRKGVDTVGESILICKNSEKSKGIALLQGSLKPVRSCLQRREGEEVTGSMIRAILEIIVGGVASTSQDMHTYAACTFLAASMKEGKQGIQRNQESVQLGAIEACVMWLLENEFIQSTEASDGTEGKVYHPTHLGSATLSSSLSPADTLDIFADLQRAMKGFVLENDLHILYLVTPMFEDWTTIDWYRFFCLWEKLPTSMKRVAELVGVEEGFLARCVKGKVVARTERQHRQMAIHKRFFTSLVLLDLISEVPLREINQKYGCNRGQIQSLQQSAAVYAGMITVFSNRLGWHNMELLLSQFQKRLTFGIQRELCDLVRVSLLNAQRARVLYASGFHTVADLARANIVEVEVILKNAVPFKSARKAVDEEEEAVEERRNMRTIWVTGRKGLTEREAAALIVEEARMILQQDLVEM

SMILES	IC50 (DLD1 BRCA2 (−/−) cells)	IC50 [1]	IC50 (DLD1 WT cells)
COc1cnc(Cl)cc1-c1cc(C)ncc1C(=O)Nc1nc2c(s1)CN(C(=O)C1CC3(CCC3)C1)C2 [Example 8, 2′-chloro-5′-methoxy-6-methyl-N-(5-(spiro[3.3]heptane-2-carbonyl)-5,6-dihydro-4H-pyrrolo[3,4-d]thiazol-2-yl)-[4,4′-bipyridine]-3-carboxamide]	0.001 to 0.1 µM	1 to 15 nM	5 to 10 µM
COc1cnc(Cl)cc1-c1cc(C)ncc1C(=O)Nc1nc2c(s1)CN(C(=O)[C@H]1C[C@@H](OC(F)F)C1)C2 [Example 10, 2′-chloro-N-(5-((1s,3s)-3-(difluoromethoxy)cyclobutane-1-carbonyl)-5,6-dihydro-4H-pyrrolo[3,4-d]thiazol-2-yl)-5′-methoxy-6-methyl-[4,4′-bipyridine]-3-carboxamide]	0.001 to 0.1 µM	1 to 15 nM	≥ 10 µM
COc1cnc(Cl)cc1-c1cc(C)ncc1C(=O)Nc1nc2c(s1)CN(C(=O)c1ccc(C(F)(F)F)nn1)C2 [Example 14, 2′-chloro-5′-methoxy-6-methyl-N-(5-(6-(trifluoromethyl)pyridazine-3-carbonyl)-5,6-dihydro-4H-pyrrolo[3,4-d]thiazol-2-yl)-[4,4′-bipyridine]-3-carboxamide]	0.001 to 0.1 µM	1 to 15 nM	≥ 10 µM
COc1cnc(Cl)cc1-c1cc(C)ncc1C(=O)Nc1nc2c(s1)CN(C(=O)c1ccc(C(F)(F)F)nc1OC)C2 [Example 15, 2′-chloro-5′-methoxy-N-(5-(2-methoxy-6-(trifluoromethyl)nicotinoyl)-5,6-dihydro-4H-pyrrolo[3,4-d]thiazol-2-yl)-6-methyl-[4,4′-bipyridine]-3-carboxamide]	0.001 to 0.1 µM	1 to 15 nM	5 to 10 µM
COc1cnc(Cl)cc1-c1cc(C)ncc1C(=O)Nc1nc2c(s1)CN(C(=O)c1ncc(C(F)(F)F)cc1Cl)C2 [Example 16, 2′-chloro-N-(5-(3-chloro-5-(trifluoromethyl)picolinoyl)-5,6-dihydro-4H-pyrrolo[3,4-d]thiazol-2-yl)-5′-methoxy-6-methyl-[4,4′-bipyridine]-3-carboxamide]	0.001 to 0.1 µM	1 to 15 nM	≥ 10 µM
COc1cnc(Cl)cc1-c1cc(C)ncc1C(=O)Nc1nc2c(s1)CN(C(=O)c1cc(C)n(C)n1)C2 [Example 17, 2′-chloro-N-(5-(1,5-dimethyl-1H-pyrazole-3-carbonyl)-5,6-dihydro-4H-pyrrolo[3,4-d]thiazol-2-yl)-5′-methoxy-6-methyl-[4,4′-bipyridine]-3-carboxamide]	0.001 to 0.1 µM	1 to 15 nM	0.001 to 0.5 µM
COc1cnc(Cl)cc1-c1cc(C)ncc1C(=O)Nc1nc2c(s1)CN(C(=O)[C@H]1C[C@H](OC(F)(F)F)C1)C2 [Example 26, 2′-chloro-5′-methoxy-6-methyl-N-(5-((1r,3r)-3-(trifluoromethoxy)cyclobutane-1-carbonyl)-5,6-dihydro-4H-pyrrolo[3,4-d]thiazol-2-yl)-[4,4′-bipyridine]-3-carboxamide]	0.001 to 0.1 µM	1 to 15 nM	5 to 10 µM
COc1cnc(Cl)cc1-c1cc(C)ncc1C(=O)Nc1nc2c(s1)CN(C(=O)c1cncc(Cl)c1)C2 [Example 28, 2′-chloro-N-(5-(5-chloronicotinoyl)-5,6-dihydro-4H-pyrrolo[3,4-d]thiazol-2-yl)-5′-methoxy-6-methyl-[4,4′-bipyridine]-3-carboxamide]	0.001 to 0.1 µM	1 to 15 nM	0.5 to 2 µM
COc1cnc(Cl)cc1-c1cc(C)ncc1C(=O)Nc1nc2c(s1)CN(C(=O)c1ncc(C(F)(F)F)cn1)C2 [Example 37, 2′-chloro-5′-methoxy-6-methyl-N-(5-(5-(trifluoromethyl)pyrimidine-2-carbonyl)-5,6-dihydro-4H-pyrrolo[3,4-d]thiazol-2-yl)-[4,4′-bipyridine]-3-carboxamide]	0.001 to 0.1 µM	1 to 15 nM	≥ 10 µM
COc1cnc(Cl)cc1-c1cc(C)ncc1C(=O)Nc1nc2c(s1)CN(C(=O)c1ncc(C(F)(F)F)cc1OC)C2 [Example 38, 2′-chloro-5′-methoxy-N-(5-(3-methoxy-5-(trifluoromethyl)picolinoyl)-5,6-dihydro-4H-pyrrolo[3,4-d]thiazol-2-yl)-6-methyl-[4,4′-bipyridine]-3-carboxamide]	0.001 to 0.1 µM	1 to 15 nM	≥ 10 µM

Further lines, with some results ahead:

IC50 (DLD1 BRCA2 (−/−) cells)	IC50 [1]	SMILES	IC50 (DLD1 WT cells)
0.001 to 0.1 µM	1 to 15 nM	COc1cnc(Cl)cc1-c1cc(C)ncc1C(=O)Nc1nc2c(s1)CN(C(=O)c1cccc(Cl)n1)C2 [Example 7, 2′-chloro-N-(5-(6-chloropicolinoyl)-5,6-dihydro-4H-pyrrolo[3,4-d]thiazol-2-yl)-5′-methoxy-6-methyl-[4,4′-bipyridine]-3-carboxamide]	2 to 5 µM
0.001 to 0.1 µM	1 to 15 nM	COc1cnc(Cl)cc1-c1cc(C)ncc1C(=O)Nc1nc2c(s1)CN(C(=O)c1ccc(C(F)F)cn1)C2 [Example 9, 2′-chloro-N-(5-(5-(difluoromethyl)picolinoyl)-5,6-dihydro-4H-pyrrolo[3,4-d]thiazol-2-yl)-5′-methoxy-6-methyl-[4,4′-bipyridine]-3-carboxamide]	≥ 10 µM
0.001 to 0.1 µM	1 to 15 nM	COc1cnc(Cl)cc1-c1cc(C)ncc1C(=O)Nc1nc2c(s1)CN(C(=O)c1ccc(Cl)cn1)C2 [Example 11, 2′-chloro-N-(5-(5-chloropicolinoyl)-5,6-dihydro-4H-pyrrolo[3,4-d]thiazol-2-yl)-5′-methoxy-6-methyl-[4,4′-bipyridine]-3-carboxamide]	2 to 5 µM
0.001 to 0.1 µM	1 to 15 nM	COc1cnc(Cl)cc1-c1cc(C)ncc1C(=O)Nc1nc2c(s1)CN(C(=O)c1ccc(C(F)F)nc1)C2 [Example 12, 2′-chloro-N-(5-(6-(difluoromethyl)nicotinoyl)-5,6-dihydro-4H-pyrrolo[3,4-d]thiazol-2-yl)-5′-methoxy-6-methyl-[4,4′-bipyridine]-3-carboxamide]	≥ 10 µM
0.001 to 0.1 µM	1 to 15 nM	COc1cnc(Cl)cc1-c1cc(C)ncc1C(=O)Nc1nc2c(s1)CN(C(=O)c1ccc(Cl)nc1)C2 [Example 13, 2′-chloro-N-(5-(6-chloronicotinoyl)-5,6-dihydro-4H-pyrrolo[3,4-d]thiazol-2-yl)-5′-methoxy-6-methyl-[4,4′-bipyridine]-3-carboxamide]	≥ 10 µM
0.001 to 0.1 µM	1 to 15 nM	COc1cnc(Cl)cc1-c1cc(C)ncc1C(=O)Nc1nc2c(s1)CN(C(=O)c1cccc(C(F)F)n1)C2 [Example 18, 2′-chloro-N-(5-(6-(difluoromethyl)picolinoyl)-5,6-dihydro-4H-pyrrolo[3,4-d]thiazol-2-yl)-5′-methoxy-6-methyl-[4,4′-bipyridine]-3-carboxamide]	5 to 10 µM
0.001 to 0.1 µM	1 to 15 nM	COc1cnc(Cl)cc1-c1cc(C)ncc1C(=O)Nc1nc2c(s1)CN(C(=O)c1cnccc1Cl)C2 [Example 19, 2′-chloro-N-(5-(4-chloronicotinoyl)-5,6-dihydro-4H-pyrrolo[3,4-d]thiazol-2-yl)-5′-methoxy-6-methyl-[4,4′-bipyridine]-3-carboxamide]	≥ 10 µM
0.001 to 0.1 µM	1 to 15 nM	COc1cnc(Cl)cc1-c1cc(C)ncc1C(=O)Nc1nc2c(s1)CN(C(=O)c1cccc(C(F)(F)F)n1)C2 [Example 21, 2′-chloro-5′-methoxy-6-methyl-N-(5-(6-(trifluoromethyl)picolinoyl)-5,6-dihydro-4H-pyrrolo[3,4-d]thiazol-2-yl)-[4,4′-bipyridine]-3-carboxamide]	≥ 10 µM
0.001 to 0.1 µM	1 to 15 nM	COc1cnc(Cl)cc1-c1cc(C)ncc1C(=O)Nc1nc2c(s1)CN(C(=O)c1ncc(Cl)cn1)C2 [Example 35, 2′-chloro-N-(5-(5-chloropyrimidine-2-carbonyl)-5,6-dihydro-4H-pyrrolo[3,4-d]thiazol-2-yl)-5′-methoxy-6-methyl-[4,4′-bipyridine]-3-carboxamide]	2 to 5 µM
0.001 to 0.1 µM	1 to 15 nM	COc1cnc(Cl)cc1-c1cc(C)ncc1C(=O)Nc1nc2c(s1)CN(C(=O)c1cnc(C(F)F)cc1Cl)C2 [Example 36, 2′-chloro-N-(5-(4-chloro-6-(difluoromethyl)nicotinoyl)-5,6-dihydro-4H-pyrrolo[3,4-d]thiazol-2-yl)-S′-methoxy-6-methyl-[4,4′-bipyridine]-3-carboxamide]	≥ 10 µM
0.001 to 0.1 µM	1 to 15 nM	COc1cnc(Cl)cc1-c1cc(C)ncc1C(=O)Nc1nc2c(s1)CN(C(=O)c1cccnc1C(F)F)C2 [Example 39, 2′-chloro-N-(5-(2-(difluoromethyl)nicotinoyl)-5,6-dihydro-4H-pyrrolo[3,4-d]thiazol-2-yl)-5′-methoxy-6-methyl-[4,4′-bipyridine]-3-carboxamide]	≥ 10 µM
0.001 to 0.1 µM	1 to 15 nM	COc1cnc(Cl)cc1-c1cc(C)ncc1C(=O)Nc1nc2c(s1)CN(C(=O)c1cnc(C(F)F)cn1)C2 [Example 40, 2′-chloro-N-(5-(5-(difluoromethyl)pyrazine-2-carbonyl)-5,6-dihydro-4H-pyrrolo[3,4-d]thiazol-2-yl)-5′-methoxy-6-methyl-[4,4′-bipyridine]-3-carboxamide]	5 to 10 µM
0.001 to 0.1 µM	1 to 15 nM	COc1cnc(Cl)cc1-c1cc(C)ncc1C(=O)Nc1nc2c(s1)CN(C(=O)c1ccc(C(F)(F)F)nc1)C2 [Example 42, 2′-chloro-5′-methoxy-6-methyl-N-(5-(6-(trifluoromethyl)nicotinoyl)-5,6-dihydro-4H-pyrrolo[3,4-d]thiazol-2-yl)-[4,4′-bipyridine]-3-carboxamide]	≥ 10 µM
